Measured values taken from ChEMBL document CHEMBL3132769, “Fragment growing to retain or alter the selectivity of anchored kinase hinge-binding fragments” (Medchemcomm, 2014).

What was measured:
[1] = biological target: T1, Serine/threonine-protein kinase Sgk1 (Homo sapiens) (UniProt O00141); test: Inhibition of human truncated SGK1 expressed in baculovirus assessed as substrate phosphorylation using fluorescence-labelled peptides as substrate at 420 uM after 90 mins by microfluidic peptide phosphorylation assay
T1 sequence (whole entry): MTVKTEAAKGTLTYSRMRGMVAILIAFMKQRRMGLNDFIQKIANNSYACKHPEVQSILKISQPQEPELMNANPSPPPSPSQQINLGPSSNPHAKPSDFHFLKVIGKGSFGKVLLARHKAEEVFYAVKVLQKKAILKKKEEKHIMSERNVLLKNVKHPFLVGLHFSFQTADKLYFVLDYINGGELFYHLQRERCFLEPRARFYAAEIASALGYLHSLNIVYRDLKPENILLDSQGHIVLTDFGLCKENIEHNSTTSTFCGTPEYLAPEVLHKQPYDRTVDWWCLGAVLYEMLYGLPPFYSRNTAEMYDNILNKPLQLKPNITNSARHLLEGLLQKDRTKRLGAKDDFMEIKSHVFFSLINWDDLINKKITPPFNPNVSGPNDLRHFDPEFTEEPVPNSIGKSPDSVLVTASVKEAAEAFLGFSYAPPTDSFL

[2] = biological target: Ribosomal protein S6 kinase alpha-3 (Homo sapiens) (UniProt P51812); test: Inhibition of human full length RSK2 expressed in baculovirus assessed as substrate phosphorylation using fluorescence-labelled peptides as substrate at 9 uM after 90 mins by microfluidic peptide phosphorylation assay
[3] = biological target: Platelet-derived growth factor receptor alpha (Homo sapiens) (UniProt P16234); test: Inhibition of human PDGFR alpha catalytic domain expressed in baculovirus assessed as substrate phosphorylation using fluorescence-labelled peptides as substrate at 2 uM after 90 mins by microfluidic peptide phosphorylation assay
[4] = biological target: T2, Serine/threonine-protein kinase D3 (Homo sapiens) (UniProt O94806); conditions: 0.1 uM
T2 sequence (whole entry): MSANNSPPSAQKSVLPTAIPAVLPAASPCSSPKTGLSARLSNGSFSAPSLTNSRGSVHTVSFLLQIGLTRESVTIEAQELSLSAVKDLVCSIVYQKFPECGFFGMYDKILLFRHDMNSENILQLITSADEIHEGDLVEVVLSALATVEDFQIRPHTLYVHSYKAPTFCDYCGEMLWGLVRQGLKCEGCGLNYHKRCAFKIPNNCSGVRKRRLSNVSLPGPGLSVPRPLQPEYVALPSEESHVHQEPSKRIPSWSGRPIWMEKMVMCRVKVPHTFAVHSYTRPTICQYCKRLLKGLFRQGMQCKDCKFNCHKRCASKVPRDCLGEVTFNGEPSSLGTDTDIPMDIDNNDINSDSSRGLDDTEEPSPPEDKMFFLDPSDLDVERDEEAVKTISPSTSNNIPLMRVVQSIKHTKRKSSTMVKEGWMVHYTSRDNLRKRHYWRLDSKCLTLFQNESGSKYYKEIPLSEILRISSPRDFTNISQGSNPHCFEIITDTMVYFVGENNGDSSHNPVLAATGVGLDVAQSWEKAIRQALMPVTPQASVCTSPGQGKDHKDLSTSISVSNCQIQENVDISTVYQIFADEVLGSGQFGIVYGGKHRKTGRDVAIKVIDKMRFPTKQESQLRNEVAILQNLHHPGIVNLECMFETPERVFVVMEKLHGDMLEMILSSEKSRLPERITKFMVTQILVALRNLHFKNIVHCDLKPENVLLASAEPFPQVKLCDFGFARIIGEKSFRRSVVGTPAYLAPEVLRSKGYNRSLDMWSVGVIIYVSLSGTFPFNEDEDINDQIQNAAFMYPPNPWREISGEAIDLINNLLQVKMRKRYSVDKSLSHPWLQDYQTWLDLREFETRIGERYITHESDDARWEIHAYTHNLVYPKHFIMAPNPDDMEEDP
Description: Inhibition of human full length PKD3 expressed in baculovirus assessed as substrate phosphorylation using fluorescence-labelled peptides as substrate at 0.1 uM after 90 mins by microfluidic peptide phosphorylation assay

[5] = biological target: Serine/threonine-protein kinase PAK 2 (Homo sapiens) (UniProt Q13177); conditions: 0.1 uM
Description: Inhibition of human truncated PAK2 expressed in Escherichia coli cell assessed as substrate phosphorylation using fluorescence-labelled peptides as substrate at 0.1 uM after 90 mins by microfluidic peptide phosphorylation assay

[6] = biological target: Calcium/calmodulin-dependent protein kinase type II subunit beta (Homo sapiens) (UniProt Q13554); test: Inhibition of human CAMK2 beta catalytic domain expressed in baculovirus assessed as substrate phosphorylation using fluorescence-labelled peptides as substrate at 95 uM after 90 mins by microfluidic peptide phosphorylation assay
[7] = biological target: Protein kinase C beta type (Homo sapiens) (UniProt P05771); test: Inhibition of human full length PKC beta2 expressed in baculovirus assessed as substrate phosphorylation using fluorescence-labelled peptides as substrate at 95 uM after 90 mins by microfluidic peptide phosphorylation assay
[8] = biological target: T3, Serine/threonine-protein kinase Chk1 (Homo sapiens) (UniProt O14757); test: Inhibition of human full length CHK1 expressed in baculovirus assessed as substrate phosphorylation using fluorescence-labelled peptides as substrate at 0.06 uM after 90 mins by microfluidic peptide phosphorylation assay
T3 sequence (whole entry): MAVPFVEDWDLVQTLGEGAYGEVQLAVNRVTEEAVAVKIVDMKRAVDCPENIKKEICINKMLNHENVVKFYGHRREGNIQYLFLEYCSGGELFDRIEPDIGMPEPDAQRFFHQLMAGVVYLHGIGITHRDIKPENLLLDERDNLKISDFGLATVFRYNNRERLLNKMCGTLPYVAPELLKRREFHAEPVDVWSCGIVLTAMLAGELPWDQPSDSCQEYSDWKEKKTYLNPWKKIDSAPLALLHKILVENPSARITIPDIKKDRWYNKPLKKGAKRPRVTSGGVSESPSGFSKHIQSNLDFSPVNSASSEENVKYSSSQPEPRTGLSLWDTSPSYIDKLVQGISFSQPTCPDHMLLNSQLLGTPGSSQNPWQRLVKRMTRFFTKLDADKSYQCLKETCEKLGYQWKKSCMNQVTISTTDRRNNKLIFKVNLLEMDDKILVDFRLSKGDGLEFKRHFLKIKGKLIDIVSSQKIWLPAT

Serine/threonine-protein kinase PAK 2 (Homo sapiens), sequence (Q13177 whole entry, the tested form may be a part): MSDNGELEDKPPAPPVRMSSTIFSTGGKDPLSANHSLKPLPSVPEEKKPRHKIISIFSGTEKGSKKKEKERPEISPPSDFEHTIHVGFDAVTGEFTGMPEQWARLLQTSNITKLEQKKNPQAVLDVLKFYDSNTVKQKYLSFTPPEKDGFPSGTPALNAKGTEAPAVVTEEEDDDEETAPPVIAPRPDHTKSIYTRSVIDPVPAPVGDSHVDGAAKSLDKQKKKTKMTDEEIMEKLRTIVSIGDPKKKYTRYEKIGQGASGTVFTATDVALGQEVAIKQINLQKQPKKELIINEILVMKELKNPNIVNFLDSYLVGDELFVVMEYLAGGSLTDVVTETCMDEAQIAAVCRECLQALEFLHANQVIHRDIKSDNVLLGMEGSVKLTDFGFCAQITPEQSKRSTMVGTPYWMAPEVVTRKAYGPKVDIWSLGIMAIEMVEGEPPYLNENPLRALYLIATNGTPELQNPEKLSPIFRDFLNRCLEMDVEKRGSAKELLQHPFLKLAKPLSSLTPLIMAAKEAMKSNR
Ribosomal protein S6 kinase alpha-3 (Homo sapiens), sequence (P51812 whole entry, the tested form may be a part): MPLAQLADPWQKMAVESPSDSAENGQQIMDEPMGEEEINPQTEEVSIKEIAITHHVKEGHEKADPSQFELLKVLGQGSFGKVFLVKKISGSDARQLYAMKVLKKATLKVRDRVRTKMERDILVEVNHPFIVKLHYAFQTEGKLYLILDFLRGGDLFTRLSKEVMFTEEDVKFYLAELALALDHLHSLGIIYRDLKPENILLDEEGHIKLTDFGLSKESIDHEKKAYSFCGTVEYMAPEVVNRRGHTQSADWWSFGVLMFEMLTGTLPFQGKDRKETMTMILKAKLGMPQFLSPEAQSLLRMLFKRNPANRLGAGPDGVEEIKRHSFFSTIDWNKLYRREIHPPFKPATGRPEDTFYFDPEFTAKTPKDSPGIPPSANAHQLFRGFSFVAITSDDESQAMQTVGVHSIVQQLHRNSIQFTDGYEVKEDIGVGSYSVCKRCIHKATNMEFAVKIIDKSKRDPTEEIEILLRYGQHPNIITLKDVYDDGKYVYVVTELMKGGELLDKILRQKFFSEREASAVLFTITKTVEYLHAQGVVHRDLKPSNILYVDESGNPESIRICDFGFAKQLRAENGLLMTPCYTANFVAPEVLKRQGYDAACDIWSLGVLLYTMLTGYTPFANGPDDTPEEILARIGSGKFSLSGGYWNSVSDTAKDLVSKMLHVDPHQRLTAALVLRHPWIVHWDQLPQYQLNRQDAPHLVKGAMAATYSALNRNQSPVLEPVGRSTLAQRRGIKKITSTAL
Calcium/calmodulin-dependent protein kinase type II subunit beta (Homo sapiens), sequence (Q13554 whole entry, the tested form may be a part): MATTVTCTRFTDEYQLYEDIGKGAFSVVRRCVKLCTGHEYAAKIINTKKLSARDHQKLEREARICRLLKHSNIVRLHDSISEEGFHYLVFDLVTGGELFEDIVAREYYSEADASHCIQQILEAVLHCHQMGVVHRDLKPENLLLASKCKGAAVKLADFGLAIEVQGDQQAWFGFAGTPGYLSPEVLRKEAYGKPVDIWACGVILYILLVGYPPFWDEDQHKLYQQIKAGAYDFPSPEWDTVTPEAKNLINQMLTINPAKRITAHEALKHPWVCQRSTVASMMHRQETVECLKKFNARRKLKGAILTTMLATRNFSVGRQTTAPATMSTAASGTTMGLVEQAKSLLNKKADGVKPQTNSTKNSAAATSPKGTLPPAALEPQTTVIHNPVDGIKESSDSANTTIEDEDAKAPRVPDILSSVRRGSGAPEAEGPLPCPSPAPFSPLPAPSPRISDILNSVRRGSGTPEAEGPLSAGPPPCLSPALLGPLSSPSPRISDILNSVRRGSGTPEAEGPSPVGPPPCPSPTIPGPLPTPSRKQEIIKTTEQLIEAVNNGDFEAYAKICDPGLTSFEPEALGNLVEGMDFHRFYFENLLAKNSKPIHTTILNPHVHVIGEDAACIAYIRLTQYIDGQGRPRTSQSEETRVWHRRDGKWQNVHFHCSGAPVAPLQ
Platelet-derived growth factor receptor alpha (Homo sapiens), sequence (P16234 whole entry, the tested form may be a part): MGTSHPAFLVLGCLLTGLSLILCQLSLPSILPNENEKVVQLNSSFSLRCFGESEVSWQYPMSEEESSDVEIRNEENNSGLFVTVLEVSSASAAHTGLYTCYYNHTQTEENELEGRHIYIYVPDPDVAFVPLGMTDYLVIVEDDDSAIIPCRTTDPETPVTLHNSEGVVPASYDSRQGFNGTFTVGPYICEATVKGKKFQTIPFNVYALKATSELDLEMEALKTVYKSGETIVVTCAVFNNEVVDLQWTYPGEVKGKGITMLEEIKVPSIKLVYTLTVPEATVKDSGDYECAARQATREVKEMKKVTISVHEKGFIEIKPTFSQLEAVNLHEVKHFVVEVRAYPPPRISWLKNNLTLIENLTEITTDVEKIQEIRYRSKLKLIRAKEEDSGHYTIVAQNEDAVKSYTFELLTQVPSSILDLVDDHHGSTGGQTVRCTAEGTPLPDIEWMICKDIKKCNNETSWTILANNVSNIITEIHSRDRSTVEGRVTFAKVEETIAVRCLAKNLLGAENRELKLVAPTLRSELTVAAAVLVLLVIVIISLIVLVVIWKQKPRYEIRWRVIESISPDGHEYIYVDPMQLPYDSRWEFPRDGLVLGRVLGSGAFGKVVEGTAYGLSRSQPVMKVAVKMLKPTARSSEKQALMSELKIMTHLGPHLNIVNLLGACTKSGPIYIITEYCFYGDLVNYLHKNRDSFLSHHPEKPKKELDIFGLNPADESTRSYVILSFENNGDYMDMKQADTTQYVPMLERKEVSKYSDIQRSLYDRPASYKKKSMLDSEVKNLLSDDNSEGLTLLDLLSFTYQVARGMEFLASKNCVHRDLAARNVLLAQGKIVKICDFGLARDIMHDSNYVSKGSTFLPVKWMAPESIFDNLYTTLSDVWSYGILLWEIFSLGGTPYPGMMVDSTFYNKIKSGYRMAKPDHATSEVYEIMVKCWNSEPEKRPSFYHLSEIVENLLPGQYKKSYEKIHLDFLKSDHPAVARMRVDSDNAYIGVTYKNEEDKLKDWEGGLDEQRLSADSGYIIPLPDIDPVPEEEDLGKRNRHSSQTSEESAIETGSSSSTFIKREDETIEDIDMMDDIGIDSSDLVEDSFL
Protein kinase C beta type (Homo sapiens), sequence (P05771 2-671 limits assumed): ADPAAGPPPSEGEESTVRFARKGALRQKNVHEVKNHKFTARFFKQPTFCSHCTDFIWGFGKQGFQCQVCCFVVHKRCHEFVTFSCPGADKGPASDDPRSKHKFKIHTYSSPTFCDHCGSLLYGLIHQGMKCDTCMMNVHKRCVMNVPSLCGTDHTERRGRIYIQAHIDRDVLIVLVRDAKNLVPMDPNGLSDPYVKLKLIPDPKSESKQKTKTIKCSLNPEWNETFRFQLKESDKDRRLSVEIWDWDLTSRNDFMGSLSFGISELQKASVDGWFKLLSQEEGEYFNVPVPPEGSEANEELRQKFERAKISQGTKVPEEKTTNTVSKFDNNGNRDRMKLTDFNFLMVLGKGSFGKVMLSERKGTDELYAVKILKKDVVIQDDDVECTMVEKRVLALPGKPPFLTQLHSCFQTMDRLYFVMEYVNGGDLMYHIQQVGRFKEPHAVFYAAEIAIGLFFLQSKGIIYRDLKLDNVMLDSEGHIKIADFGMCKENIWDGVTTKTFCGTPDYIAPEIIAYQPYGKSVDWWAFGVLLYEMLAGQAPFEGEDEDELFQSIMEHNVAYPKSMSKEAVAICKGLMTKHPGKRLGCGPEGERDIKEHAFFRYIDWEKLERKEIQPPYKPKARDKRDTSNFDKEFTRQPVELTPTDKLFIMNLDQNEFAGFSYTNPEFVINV

c1nc(N2CCOCC2)c2nc[nH]c2n1
inhibition [1]: 83.5%

NCC1CN(c2ncnc3[nH]c4cnccc4c23)CCO1 (stereo not drawn)
inhibition [2]: 95.5%

NC1CCN(c2ncnc3[nH]ccc23)CC1
inhibition [3]: 5%

C[C@H](CN(C)C)Oc1nc(Nc2cc3cccc(Cl)c3cn2)cnc1C#N
inhibition [4]: 0%
inhibition [5]: 0%

NCCc1ccc(-c2ncnc3[nH]cnc23)cc1
inhibition [6]: 2%
inhibition [7]: 0%

NC1(Cc2ccc(Cl)cc2)CCN(c2ncnc3[nH]ccc23)CC1
inhibition [8]: 0%
